Data as given in PubChem BioAssay (NCI).
“And” between values parts separate entries of the source, which are not always exact repeats. Equal entries are not always repeated.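 Compound exposure: 48 hours, 5 concentrations, 96-well plates. Abbreviation: GI50, concentration required for 50% inhibition of growth. TGI denotes the concentration required for complete inhibition of growth.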

What was measured:
Test in all cases: NCI anticancer screen, dose series, 48 h
U251 CNS = tested on: U251 CNS
HCT-116 colon = tested on: HCT-116 colon
CCRF-CEM leukemia = tested on: CCRF-CEM leukemia
EKVX NSCLC = tested on: EKVX NSCLC
MALME-3M melanoma = tested on: MALME-3M melanoma
SF-295 CNS = tested on: SF-295 CNS
K-562 leukemia = tested on: K-562 leukemia
MCF7 breast = tested on: MCF7 breast
MDA-MB-231 breast = tested on: MDA-MB-231 breast
BT-549 breast = tested on: BT-549 breast

| Compound | TGI (U251 CNS) | TGI (HCT-116 colon) | TGI (CCRF-CEM leukemia) [µM] | TGI (EKVX NSCLC) [µM] | TGI (MALME-3M melanoma) [µM] | TGI (SF-295 CNS) | TGI (K-562 leukemia) | GI50 (MCF7 breast) [µM] | TGI (MCF7 breast) | GI50 (U251 CNS) [µM] | GI50 (HCT-116 colon) [µM] | GI50 (CCRF-CEM leukemia) [µM] | GI50 (MDA-MB-231 breast) [µM] | TGI (MDA-MB-231 breast) [µM] | GI50 (MALME-3M melanoma) [µM] | GI50 (SF-295 CNS) [µM] | GI50 (K-562 leukemia) [µM] | GI50 (BT-549 breast) [µM] | TGI (BT-549 breast) [µM] | GI50 (EKVX NSCLC) [µM] |
| --- | --- | --- | --- | --- | --- | --- | --- | --- | --- | --- | --- | --- | --- | --- | --- | --- | --- | --- | --- | --- |
| N#CC1(c2nc3ccccc3o2)C(=O)C(=O)N(C2C3CC4CC(C3)CC2C4)C(=O)C1=O (configuration not stated) | > 100 µM | > 100 µM | > 100 | > 100 | > 100 | > 100 µM | > 100 µM |  |  |  |  |  |  |  |  |  |  |  |  |  |
| CN=C(N)N/N=C(\c1ccccc1)c1ccc(Br)cc1 | 2.63 µM | 3.3 µM | 4.66 |  | 4.24 | 1.48 µM | 6.31 µM | 0.268 | 8.33 µM | 0.375 | 0.309 | 0.32 | 0.358 | 2.09 | 1.13 | 0.287 | 0.294 | 1.5 | 12.7 |  |
| Cc1cc2c(cc1C)[n+](=O)c(C(=O)C/C(=N/NC(=O)c1ccccc1O)C(=O)Nc1ccccc1C(C)C)c(C)n2[O-] | > 100 µM | > 100 µM | 94.1 | > 100 | > 100 | > 100 µM | > 100 µM |  |  |  |  |  |  |  |  |  |  |  |  |  |
| CC(C)(C)OC(=O)n1cc(CNC(=S)Nc2ccccc2)c2ccccc21 | 16 µM | 30.1 µM |  | 21.5 |  | 23.4 µM | 70.1 µM | 9.02 | 48 µM | 4.18 | 15.2 |  | 15.5 | 28.8 |  | 6.04 | 8.73 | 14.5 | 32.7 | 4.15 |
| CCOC(=O)C1=C(C)Nc2ccccc2S1 | > 100 µM | > 100 µM | > 100 | > 100 | > 100 | > 100 µM | > 100 µM |  |  |  |  |  |  |  |  |  |  |  |  |  |
| C=C1C(=O)O[C@H]2[C@H]1CC/C(CNC(=O)c1c[nH]c3ccc(F)cc13)=C\CC[C@@]1(C)O[C@@H]21 | 7.94 µM | 1.98 µM | 1.83 | 5.6 | 3.3 | 17 µM | 6.17 µM |  |  | 2.68 | 0.632 | 0.359 | 1.46 | 3.58 | 1.41 | 3.71 | 0.856 | 1.19 | 2.7 | 1.68 |
| C=C1CCC2C(/C=C(\C)CCC1O)OC(=O)C2C (configuration not stated) | > 100 µM | > 100 µM | > 100 | > 100 | > 100 | > 100 µM | > 100 µM | 82.2 | > 100 µM | > 100 | > 100 | 31.3 | > 100 | > 100 | > 100 | > 100 | > 100 |  |  | > 100 |
| O=C(/C=C/c1ccc(Cl)cc1)c1ccc(Cl)cc1Cl | 14.1 µM | 33.5 µM |  | 19.7 |  | 21.4 µM | 14.2 µM | 6.28 | 23 µM | 7.23 | 4.74 |  | 10.9 | 22.1 |  | 10.6 | 1.68 | 7.44 | 14.8 | 9.33 |
| N#Cc1c(-c2cccs2)c2c(=S)[nH]c(=S)[nH]c2[nH]c1=S | > 100 µM | > 100 µM |  | 60.8 |  | > 100 µM | > 100 µM |  |  | 30.2 | 49.5 |  | 39 | > 100 |  | 46.5 | 27.1 | 23.5 | 56.2 | 20 |
| FC(F)(F)c1nc(-c2ccccc2Cl)[nH]c1C(F)(F)F | 3.08 µM | 2.15 µM | 1.6 | 2.25 | 2.75 | 2.03 µM | 4.29 µM |  |  |  |  |  |  |  |  |  |  |  |  |  |
| C#CCNC(=O)NC(CCCNC(=O)OCc1ccccc1)C(=O)OCc1ccccc1 (configuration not stated) | > 100 µM | > 100 µM | > 100 | > 100 | > 100 | > 100 µM | > 100 µM |  |  |  |  |  |  |  |  |  |  |  |  |  |
| COc1ccc2cc1Oc1ccc(cc1)C[C@H]1c3cc(c(OC)cc3CCN1C)Oc1c(OC)c(OC)cc3c1[C@H](C2)N(C)CC3 | 15.1 µM and 13.5 µM and > 100 µM | 11.1 µM and 14.9 µM and > 100 µM |  |  |  | 16.3 µM and 28.9 µM and > 100 µM | 11.1 µM and > 100 µM | 5.27 | 14 µM and 17.8 µM and > 100 µM | 3.92 | 3.8 |  | 2.19 |  |  | 12.8 |  |  |  |  |
| CCOc1ccc(NC(=O)CC2Sc3ccccc3NC2=O)cc1 (configuration not stated) | > 100 µM | 76.2 µM | > 100 | > 100 | > 100 | > 100 µM | > 100 µM |  |  |  |  |  |  |  |  |  |  |  |  |  |
| N#Cc1c(NC(=O)c2cccc(C(F)(F)F)c2)sc2c1CCC(=O)C2 | 1.58 µM | 1.56 µM | > 100 | 4.26 | 1.12 | 3.88 µM |  |  |  | 0.352 | 0.336 | 0.262 | 1.39 | 3.31 | 0.326 | 0.845 | 0.217 | 0.419 | 2.06 | 1.67 |
| CC(=O)[CH-]C(=O)c1ccccc1.CC(=O)[CH-]C(=O)c1ccccc1.CCCCCCCCCCCCCCCCCC(=O)[O-].CCCCCCCCCCCCCCCCCC(=O)[O-].[Ti+4] | 41.4 µM | 36.5 µM | 86.3 | > 100 | > 100 | 34.3 µM | 62.1 µM |  |  | 20.3 | 18.3 | 23.2 |  |  | 36.7 | 19.5 | 22.3 |  |  | 74.2 |
| COC(=O)C(c1[nH]nc2ccccc12)C(C(=O)OC)c1[nH]nc2ccccc12 (configuration not stated) | > 100 µM | > 100 µM | > 100 | > 100 | > 100 | > 100 µM | > 100 µM |  |  |  |  |  |  |  |  |  |  |  |  |  |
| N/C(CC(=O)Nc1cc(C(F)(F)F)ccc1Cl)=N\O | > 100 µM | > 100 µM |  | > 100 | > 100 | > 100 µM | > 100 µM |  | > 100 µM |  |  |  |  | > 100 |  |  |  |  | > 100 |  |
| O=C(C#Cc1c[nH]c(=O)[nH]c1=O)c1ccccc1Cl | 35.1 µM | 30.9 µM | 59.8 | 36.5 | 32.1 | > 100 µM | > 100 µM |  |  |  |  |  |  |  |  |  |  |  |  |  |
| CCOC(=O)C1(CC)CCCCC(=O)N1 (configuration not stated) | > 100 µM |  | > 100 | > 100 | > 100 | > 100 µM | > 100 µM |  |  |  |  |  |  |  |  |  |  |  |  |  |
